Measured values reported in patent US8507502B2, “Fused bicyclic and tricyclic pyrimidine compounds as tyrosine kinase inhibitors” (National Health Research Institutes, priority 2008, dated 2013).
Where two headings read alike, the source gives them in different places.

Assays:
GST-EGFR-KD^WT = target: T1, GST-EGFR-KD^WT (Homo sapiens, UniProt P00533); test: EGFR kinase assay (Kinase-Glo); type: biochemical; settings: 5 μM ATP, read-out: IC50 (concentration at which activity of 50% of EGFR is inhibited)
T1 construct: 50 ng GST-EGFR-KD^WT proteins; made in house
T1 sequence (P00533 712-979 limits assumed): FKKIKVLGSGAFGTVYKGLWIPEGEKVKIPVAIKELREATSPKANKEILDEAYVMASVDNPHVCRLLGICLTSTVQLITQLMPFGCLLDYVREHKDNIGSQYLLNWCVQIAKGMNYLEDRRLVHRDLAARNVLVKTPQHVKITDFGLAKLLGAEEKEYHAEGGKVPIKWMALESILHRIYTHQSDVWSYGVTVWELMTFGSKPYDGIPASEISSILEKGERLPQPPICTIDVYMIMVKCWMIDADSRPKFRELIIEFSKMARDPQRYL

HCC827 cells = test: HCC827 cell viability, MTS assay; type: cell-based; settings: Homo sapiens, 96-h incubation, read-out: IC50 (concentration which causes 50% of the cell death)
GST-EGFR-KD^L858R/T790M = target: T2, GST-EGFR-KD^L858R/T790M (Homo sapiens, UniProt P00533, L858R/T790M); test: Double mutant EGFR kinase assay (Kinase-Glo); type: biochemical; settings: 1 μM ATP, read-out: IC50 (concentration at which activity of 50% of mutant EGFR is inhibited)
T2 construct: residues from 696 to 1022 and with L858R/T790M; made in house; host or cells: Sf9 insect cells (baculovirus)
T2 sequence (P00533 696-1022 T790M/L858R): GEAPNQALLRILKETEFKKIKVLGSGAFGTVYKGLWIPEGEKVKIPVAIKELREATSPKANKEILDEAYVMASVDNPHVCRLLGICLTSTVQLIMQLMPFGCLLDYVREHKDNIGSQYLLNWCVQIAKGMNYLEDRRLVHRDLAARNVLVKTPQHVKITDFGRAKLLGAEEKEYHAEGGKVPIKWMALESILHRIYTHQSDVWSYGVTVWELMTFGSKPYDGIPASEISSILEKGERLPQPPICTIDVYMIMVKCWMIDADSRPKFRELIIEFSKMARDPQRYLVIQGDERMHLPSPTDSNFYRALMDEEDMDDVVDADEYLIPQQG

HCC827 = test: In vivo anticancer activity, lung cancer xenograft mice (injected with HCC827); set-up: species or system nude mice; settings: for tumor size relative to that of the vehicle controls: days 1-5 and 8-12, 22nd day post treatment
Description: In vivo efficacy of the compounds of this invention was assessed using lung cancer xenograft mice (injected with HCC827), as described in Cancer Research 2004, 64, 4621-4628.
HCC827 cells were injected via s.c. in nude mice to form lung cancer xenograft mice. Mice bearing tumor with a size of ˜100 mm^3 were randomly assigned to two groups: a vehicle control group (10 mice), and a treatment group (21 mice). Of the treated mice, 21 received Compound 62 at a daily dosage of 5 mg/kg and 15 mg/kg via IV injection through the tail veins for 5 days/week for 2 consecutive weeks (days 1-5 and 8-12).

| Structure (SMILES) | IC50 (GST-EGFR-KD^WT) | IC50 (GST-EGFR-KD^L858R/T790M) | IC50 (HCC827 cells) | tumor size relative to that of the vehicle controls (HCC827; 5 mg/kg daily IV) | tumor size relative to that of the vehicle controls (HCC827; 15 mg/kg daily IV) | tumor growth suppression (HCC827; 5 and 15 mg/kg IV, p<0.05) | IC50 (GST-EGFR-KD^WT; range given in mixed units) |
| --- | --- | --- | --- | --- | --- | --- | --- |
| CN(C)C/C=C/C(=O)N1CCc2c(sc3ncnc(N[C@H](CO)c4ccccc4)c23)C1 [Compound 62] | < 59 nM | 10 to 499 nM | 1 to 99 nM | 39% | 23% | suppressed tumor growth significantly |  |
| O=C(/C=C/CN1CCOCC1)N1CCc2c(sc3ncnc(N[C@H](CO)c4ccccc4)c23)C1 [Compound 66] | < 59 nM | 500 to 2500 nM | 1 to 99 nM |  |  |  |  |
| CN1CCN(C/C=C/C(=O)N2CCc3c(sc4ncnc(N[C@H](CO)c5ccccc5)c34)C2)CC1 [Compound 67] | < 59 nM | 500 to 2500 nM | 1 to 99 nM |  |  |  |  |
| CCN(CC)C/C=C/C(=O)N1CCc2c(sc3ncnc(N[C@H](CO)c4ccccc4)c23)C1 [Compound 75] | < 59 nM | 500 to 2500 nM | 1 to 99 nM |  |  |  |  |
| C[C@@H](Nc1ncnc2sc3c(c12)CCN(C(=O)/C=C/CN(C)C)C3)c1ccccc1 [Compound 178] | < 59 nM | 500 to 2500 nM | 1 to 99 nM |  |  |  |  |
| CN(C)C/C=C/C(=O)N1CCc2c(sc3ncnc(Nc4ccc(F)c(Cl)c4)c23)C1 [Compound 187] | < 59 nM | 10 to 499 nM | 1 to 99 nM |  |  |  |  |
| CCN(CC)C/C=C/C(=O)N1CCc2c(sc3ncnc(N[C@H](C)c4ccccc4)c23)C1 [Compound 190] | < 59 nM | 500 to 2500 nM | 1 to 99 nM |  |  |  |  |
| CC[C@@H](Nc1ncnc2sc3c(c12)CCN(C(=O)/C=C/CN(CC)CC)C3)c1ccccc1 [Compound 191] | < 59 nM | 500 to 2500 nM | 1 to 99 nM |  |  |  |  |
| CNC/C=C/C(=O)N1CCc2c(sc3ncnc(N[C@H](C)c4ccccc4)c23)C1 [Compound 205] | < 59 nM | 500 to 2500 nM | 1 to 99 nM |  |  |  |  |
| C[C@@H](Nc1ncnc2sc3c(c12)CCN(C(=O)/C=C/CNC1CC1)C3)c1ccccc1 [Compound 211] | < 59 nM | 500 to 2500 nM | 1 to 99 nM |  |  |  |  |
| C[C@@H](Nc1ncnc2sc3c(c12)CCN(C(=O)/C=C/CN(CCO)CCO)C3)c1ccccc1 [Compound 215] | < 59 nM | 500 to 2500 nM | 1 to 99 nM |  |  |  |  |
| C=CC(=O)Nc1cccc(-c2c(-c3ccccc3)oc3ncnc(N[C@H](C)c4ccccc4)c23)c1 [Compound 239] |  | 500 to 2500 nM | 1 to 99 nM |  |  |  | 101 to 900 nM |
| CC#CC(=O)Nc1cccc(-c2c(-c3ccccc3)oc3ncnc(N[C@H](CO)c4ccccc4)c23)c1 [Compound 241] | < 59 nM | 500 to 2500 nM | 1 to 99 nM |  |  |  |  |

The next lines start with results.

| IC50 (GST-EGFR-KD^WT) | IC50 (GST-EGFR-KD^L858R/T790M) | Structure (SMILES) | IC50 (HCC827 cells) | tumor size relative to that of the vehicle controls (HCC827; 5 mg/kg daily IV) | tumor size relative to that of the vehicle controls (HCC827; 15 mg/kg daily IV) | tumor growth suppression (HCC827; 5 and 15 mg/kg IV, p<0.05) | IC50 (GST-EGFR-KD^WT; range given in mixed units) |
| --- | --- | --- | --- | --- | --- | --- | --- |
| < 59 nM | 500 to 2500 nM | C=CC(=O)N1CCc2c(sc3ncnc(N[C@H](CC)c4ccccc4)c23)C1 [Compound 106] | 1 to 99 nM |  |  |  |  |
| < 59 nM | 10 to 499 nM | C=CC(=O)N1CCc2c(sc3ncnc(N[C@H](CCO)c4ccccc4)c23)C1 [Compound 176] | 1 to 99 nM |  |  |  |  |
| < 59 nM | 10 to 499 nM | C=CC(=O)N1CCc2c(sc3ncnc(N[C@H](COC)c4ccccc4)c23)C1 [Compound 185] | 1 to 99 nM |  |  |  |  |
|  | 500 to 2500 nM | C=CC(=O)N1CCc2c(sc3ncnc(NC(CCO)c4ccccc4)c23)C1 (stereo not drawn) [Compound 188] | 301 to 999 nM |  |  |  | 101 to 900 nM |
| < 59 nM | 500 to 2500 nM | C=CC(=O)N1CCc2c(sc3ncnc(N[C@H](CO)Cc4ccccc4)c23)C1 [Compound 193] | 301 to 999 nM |  |  |  |  |
| < 59 nM | 10 to 499 nM | C=CC(=O)N1CCc2c(sc3ncnc(N[C@H](COCc4ccccc4)c4ccccc4)c23)C1 [Compound 195] | 1 to 99 nM |  |  |  |  |
| < 59 nM | 500 to 2500 nM | CN(C)C/C=C/C(=O)N1CCc2c(sc3ncnc(N[C@H](COCc4ccccc4)c4ccccc4)c23)C1 [Compound 198] | 1 to 99 nM |  |  |  |  |
| < 59 nM | 10 to 499 nM | C=CC(=O)N1CCc2c(sc3ncnc(N[C@H](COCc4cccc(F)c4)c4ccccc4)c23)C1 [Compound 200] | 1 to 99 nM |  |  |  |  |
| < 59 nM | 10 to 499 nM | C=CC(=O)N1CCc2c(sc3ncnc(N[C@H](COCc4ccc(C(F)(F)F)cc4)c4ccccc4)c23)C1 [Compound 202] | 100 to 300 nM |  |  |  |  |
| < 59 nM | 500 to 2500 nM | CN(C)C/C=C/C(=O)N1CCc2c(sc3ncnc(N[C@H](COCc4ccccn4)c4ccccc4)c23)C1 [Compound 203] | 1 to 99 nM |  |  |  |  |
| < 59 nM | 10 to 499 nM | CN(C)C/C=C/C(=O)N1CCc2c(sc3ncnc(N[C@H](COCc4cccc(F)c4)c4ccccc4)c23)C1 [Compound 210] | 1 to 99 nM |  |  |  |  |
| < 59 nM | 10 to 499 nM | C=CC(=O)N1CCc2c(sc3ncnc(N[C@H](COCc4cccc(OC)c4)c4ccccc4)c23)C1 [Compound 223] | 1 to 99 nM |  |  |  |  |
| < 59 nM | 10 to 499 nM | C=CC(=O)N1CCc2c(sc3ncnc(N[C@H](COCc4cccc([N+](=O)[O-])c4)c4ccccc4)c23)C1 [Compound 226] | 1 to 99 nM |  |  |  |  |
| < 59 nM | 10 to 499 nM | C=CC(=O)N1CCc2c(sc3ncnc(N[C@H](COCc4cccc(C)c4)c4ccccc4)c23)C1 [Compound 227] | 1 to 99 nM |  |  |  |  |
| < 59 nM | 500 to 2500 nM | COc1cccc(COC[C@@H](Nc2ncnc3sc4c(c23)CCN(C(=O)/C=C/CN(C)C)C4)c2ccccc2)c1 [Compound 228] | 1 to 99 nM |  |  |  |  |
| < 59 nM | 500 to 2500 nM | CN(C)C/C=C/C(=O)N1CCc2c(sc3ncnc(N[C@H](COCc4ccccc4F)c4ccccc4)c23)C1 [Compound 232] | 1 to 99 nM |  |  |  |  |
